Data: patent publication US11622965B2, “Methods for treating lymphoid malignancies” (ZHEJIANG DTRM BIOPHARMA CO. LTD., priority 2017, dated 2023)

Tests used:
EGFR kinase = EGFR kinase (Homo sapiens, UniProt P00533); test: 46 kinase panel; format: biochemical
Source text: (§1) Both patents are incorporated by reference herein in their entirety.

FGFR2 = FGFR2 (Homo sapiens, UniProt P21802); test: 46 kinase panel; format: biochemical
Source text: as §1

JAK3 = target: T1, JAK3 (Homo sapiens, UniProt P52333); test: 46 kinase panel; format: biochemical
T1 sequence (P52333 1-1124): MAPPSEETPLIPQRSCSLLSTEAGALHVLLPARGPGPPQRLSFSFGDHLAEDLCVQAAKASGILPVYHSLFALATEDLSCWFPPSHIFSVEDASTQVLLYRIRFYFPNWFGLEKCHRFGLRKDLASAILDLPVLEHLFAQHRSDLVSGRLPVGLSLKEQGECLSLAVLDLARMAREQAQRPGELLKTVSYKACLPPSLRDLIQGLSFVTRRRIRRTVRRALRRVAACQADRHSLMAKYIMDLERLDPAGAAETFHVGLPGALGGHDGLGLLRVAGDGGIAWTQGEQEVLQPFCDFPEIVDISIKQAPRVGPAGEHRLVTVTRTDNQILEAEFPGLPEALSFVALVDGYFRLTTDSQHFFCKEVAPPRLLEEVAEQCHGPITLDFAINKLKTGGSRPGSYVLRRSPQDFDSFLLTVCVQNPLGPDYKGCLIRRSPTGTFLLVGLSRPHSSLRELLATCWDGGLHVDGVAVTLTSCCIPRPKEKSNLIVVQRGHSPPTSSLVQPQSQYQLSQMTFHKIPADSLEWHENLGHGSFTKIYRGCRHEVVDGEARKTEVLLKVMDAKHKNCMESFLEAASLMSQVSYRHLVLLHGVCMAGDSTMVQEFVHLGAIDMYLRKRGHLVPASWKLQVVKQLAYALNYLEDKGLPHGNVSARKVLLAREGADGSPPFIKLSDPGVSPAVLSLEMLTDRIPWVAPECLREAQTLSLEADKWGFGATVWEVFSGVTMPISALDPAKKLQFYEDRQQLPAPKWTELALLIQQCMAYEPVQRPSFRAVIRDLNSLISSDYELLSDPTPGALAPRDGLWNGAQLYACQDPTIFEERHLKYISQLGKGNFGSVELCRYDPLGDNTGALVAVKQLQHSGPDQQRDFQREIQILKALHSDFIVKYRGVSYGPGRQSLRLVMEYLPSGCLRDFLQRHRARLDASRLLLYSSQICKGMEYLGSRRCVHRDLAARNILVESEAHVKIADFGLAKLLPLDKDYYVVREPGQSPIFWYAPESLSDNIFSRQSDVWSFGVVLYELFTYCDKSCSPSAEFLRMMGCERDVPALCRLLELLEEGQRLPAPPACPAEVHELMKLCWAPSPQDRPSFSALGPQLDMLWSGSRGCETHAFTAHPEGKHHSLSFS
Source text: as §1

toxicokinetics in rats = format: in vivo
Source text: as §1

EGFR kinase, sequence (P00533 25-1210): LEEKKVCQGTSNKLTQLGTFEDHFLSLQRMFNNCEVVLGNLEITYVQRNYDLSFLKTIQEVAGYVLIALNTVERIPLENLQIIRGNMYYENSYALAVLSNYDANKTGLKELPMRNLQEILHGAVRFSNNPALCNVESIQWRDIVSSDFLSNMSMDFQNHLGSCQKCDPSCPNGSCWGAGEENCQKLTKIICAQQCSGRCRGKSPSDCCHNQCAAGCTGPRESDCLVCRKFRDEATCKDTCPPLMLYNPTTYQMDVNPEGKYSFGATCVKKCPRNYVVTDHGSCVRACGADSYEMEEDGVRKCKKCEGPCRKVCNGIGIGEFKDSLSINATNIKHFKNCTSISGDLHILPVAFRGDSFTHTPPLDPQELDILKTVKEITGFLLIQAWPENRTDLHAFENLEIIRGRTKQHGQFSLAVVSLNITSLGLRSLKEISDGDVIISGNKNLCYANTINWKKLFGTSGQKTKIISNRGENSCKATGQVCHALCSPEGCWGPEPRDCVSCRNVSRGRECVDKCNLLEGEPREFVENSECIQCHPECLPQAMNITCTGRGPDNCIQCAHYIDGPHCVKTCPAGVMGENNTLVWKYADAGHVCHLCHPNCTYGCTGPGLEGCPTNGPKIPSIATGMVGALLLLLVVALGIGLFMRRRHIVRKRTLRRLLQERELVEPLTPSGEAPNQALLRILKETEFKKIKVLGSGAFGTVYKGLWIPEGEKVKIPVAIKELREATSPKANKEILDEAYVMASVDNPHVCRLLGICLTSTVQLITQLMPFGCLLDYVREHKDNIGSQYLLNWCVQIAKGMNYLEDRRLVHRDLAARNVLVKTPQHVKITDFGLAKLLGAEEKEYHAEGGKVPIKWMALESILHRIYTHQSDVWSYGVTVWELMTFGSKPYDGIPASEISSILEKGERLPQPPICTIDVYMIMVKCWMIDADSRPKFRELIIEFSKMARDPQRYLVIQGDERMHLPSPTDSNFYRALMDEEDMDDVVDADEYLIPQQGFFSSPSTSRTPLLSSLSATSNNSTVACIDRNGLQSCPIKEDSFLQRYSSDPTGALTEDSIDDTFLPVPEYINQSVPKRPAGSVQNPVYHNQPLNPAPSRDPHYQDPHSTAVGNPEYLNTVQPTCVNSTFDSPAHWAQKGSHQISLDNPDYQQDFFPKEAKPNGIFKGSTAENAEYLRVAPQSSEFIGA
FGFR2, sequence (P21802 22-821, species assumed): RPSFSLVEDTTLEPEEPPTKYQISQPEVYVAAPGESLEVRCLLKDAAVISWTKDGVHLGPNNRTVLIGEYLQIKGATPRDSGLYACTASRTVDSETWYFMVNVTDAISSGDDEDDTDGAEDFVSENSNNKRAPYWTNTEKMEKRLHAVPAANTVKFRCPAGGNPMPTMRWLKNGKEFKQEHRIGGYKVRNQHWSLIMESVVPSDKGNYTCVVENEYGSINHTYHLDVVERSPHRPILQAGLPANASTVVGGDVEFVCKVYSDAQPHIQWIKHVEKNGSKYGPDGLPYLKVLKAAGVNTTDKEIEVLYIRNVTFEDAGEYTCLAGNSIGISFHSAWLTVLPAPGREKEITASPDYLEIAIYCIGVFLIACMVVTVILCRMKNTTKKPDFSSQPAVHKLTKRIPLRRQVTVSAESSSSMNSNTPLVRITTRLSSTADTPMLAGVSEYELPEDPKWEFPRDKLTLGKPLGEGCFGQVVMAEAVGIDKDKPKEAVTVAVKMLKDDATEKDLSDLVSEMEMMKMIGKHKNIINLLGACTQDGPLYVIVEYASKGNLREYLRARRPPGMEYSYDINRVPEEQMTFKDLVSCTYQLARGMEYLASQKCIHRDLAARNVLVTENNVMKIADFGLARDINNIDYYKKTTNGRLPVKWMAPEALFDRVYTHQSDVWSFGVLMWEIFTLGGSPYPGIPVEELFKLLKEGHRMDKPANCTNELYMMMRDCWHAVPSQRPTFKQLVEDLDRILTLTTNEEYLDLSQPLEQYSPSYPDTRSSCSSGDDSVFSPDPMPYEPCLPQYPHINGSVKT

C=CC(=O)N1CC[C@@H](n2nc(-c3ccc(Oc4c(F)c(F)cc(F)c4F)cc3F)c3c(N)ncnc32)C1 [Compound A, 1-((R)-3-(4-amino-3-(2-fluoro-4-(2,3,5,6-tetrafluorophenoxy)phenyl)-1H-pyrazolo[3,4-d]pyrimidin-1-yl)pyrrolidin-1-yl)prop-2-en-1-one]
inhibition of EGFR (EGFR kinase; 46 kinase panel): partial inhibition
IC50 (EGFR kinase; read-out: IC50 against EGFR kinase): 110 nM
inhibition of FGFR2 (FGFR2): partial inhibition
inhibition of JAK3 (JAK3): partial inhibition
toxicokinetics properties (toxicokinetics in rats): Improved toxicokinetics properties
